Assay results published in ChEMBL document CHEMBL3112481, “Synthesis, nitric oxide release, and α-glucosidase inhibition of nitric oxide donating apigenin and chrysin derivatives” (Bioorg Med Chem, 2014).

Experiments:
[1] = Inhibition of alpha-glucosidase (unknown origin) assessed as hydrolysis of pNP-alpha-Glu into pNP measured for 10 mins by spectrophotometric analysis; parameters: species or system Homo sapiens
[2] = Induction of nitric oxide release at 10^-4 M after 1 hr by Griess assay in presence of L-cysteine relative to control; format: physicochemical; details: 100 µM
Homo sapiens = organism: Homo sapiens; assay: Potency index, ratio of apigenin IC50 to compound IC50 for alpha-glucosidase (unknown origin)

Row | IC50 [1] | Activity [2] | Ratio IC50 (Homo sapiens) | SMILES
1 | 77.7 µM | – | – | O=c1cc(-c2ccccc2)oc2cc(O)cc(O)c12 [CHRYSIN]
2 | 24 µM | – | – | O=C(COc1cc(O)c2c(=O)cc(-c3ccccc3)oc2c1)OCCO[N+](=O)[O-]
3 | 5.04 µM | 0.24% | – | O=c1cc(-c2ccc(OCCCCO[N+](=O)[O-])cc2)oc2cc(OCCCCO[N+](=O)[O-])cc(O)c12
4 | > 100 µM | – | – | CC(=O)Oc1cc(OCCCCCCO[N+](=O)[O-])cc2oc(-c3ccccc3)cc(=O)c12
5 | 30 µM | – | – | O=c1cc(-c2ccccc2)oc2cc(OCCO[N+](=O)[O-])cc(O)c12
6 | 21 µM | – | – | O=c1cc(-c2ccccc2)oc2cc(OCCCCCCO[N+](=O)[O-])cc(O)c12
7 | > 100 µM | – | – | CC(=O)Oc1cc(OCCCCO[N+](=O)[O-])cc2oc(-c3ccccc3)cc(=O)c12
8 | 3.39 µM | – | – | O=C(COc1cc(O)c2c(=O)cc(-c3ccccc3)oc2c1)OCCCCCCO[N+](=O)[O-]
9 | 2.33 µM | 1.757% | 7.2 | O=C(COc1ccc(-c2cc(=O)c3c(O)cc(OCC(=O)OCCCCO[N+](=O)[O-])cc3o2)cc1)OCCCCO[N+](=O)[O-]
10 | 14.1 µM | – | – | O=C(COc1cc(O)c2c(=O)cc(-c3ccccc3)oc2c1)OCCCCO[N+](=O)[O-]
11 | 2.57 µM | 1.147% | – | O=C(COc1ccc(-c2cc(=O)c3c(O)cc(OCC(=O)OCCCCCCO[N+](=O)[O-])cc3o2)cc1)OCCCCCCO[N+](=O)[O-]
12 | 564 µM | – | – | C[C@H]1O[C@H](O[C@H]2[C@H](O)[C@@H](O)[C@@H](O[C@H]3[C@H](O)[C@@H](O)C(O)O[C@@H]3CO)O[C@@H]2CO)[C@H](O)[C@@H](O)[C@@H]1N[C@H]1C=C(CO)[C@@H](O)[C@H](O)[C@H]1O (stereo partly drawn) [ACARBOSE]
13 | 18.7 µM | – | – | O=c1cc(-c2ccccc2)oc2cc(OCCCCO[N+](=O)[O-])cc(O)c12
14 | 16.8 µM | – | – | O=c1cc(-c2ccc(O)cc2)oc2cc(O)cc(O)c12 [APIGENIN]
15 | 4.59 µM | 0.49% | – | O=c1cc(-c2ccc(OCCCCCCO[N+](=O)[O-])cc2)oc2cc(OCCCCCCO[N+](=O)[O-])cc(O)c12
16 | > 100 µM | – | – | CC(=O)Oc1cc(OCCO[N+](=O)[O-])cc2oc(-c3ccccc3)cc(=O)c12
17 | 3.71 µM | 1.237% | – | O=C(COc1ccc(-c2cc(=O)c3c(O)cc(OCC(=O)OCCO[N+](=O)[O-])cc3o2)cc1)OCCO[N+](=O)[O-]
18 | 227 µM | – | – | OC[C@H]1NC[C@H](O)[C@@H](O)[C@@H]1O [DUVOGLUSTAT]
19 | 7.78 µM | 0.3% | – | O=c1cc(-c2ccc(OCCO[N+](=O)[O-])cc2)oc2cc(OCCO[N+](=O)[O-])cc(O)c12

Row | SMILES | IC50 [1] | Activity [2] | Ratio IC50 (Homo sapiens)
20 | O=[N+]([O-])OCC(CO[N+](=O)[O-])O[N+](=O)[O-] [NITROGLYCERIN] | > 180 µM | 5.14% | –
